Reference: patent publication US11117900B2 (Vertex Pharmaceuticals Incorporated, priority 2012, dated 2021)

Tested on: HCT116 colorectal cancer cells
Test: Cisplatin sensitization assay (96 h MTS cell viability);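 also: compound concentration needed to lower the IC50 of Cisplatin alone by a set fold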
Type: cell-based
Conditions: Cisplatin sensitization value
Description: Compounds can be screened for their ability to sensitize HCT116 colorectal cancer cells to Cisplatin using a 96 h cell viability (MTS) assay. […] Compounds and Cisplatin are then both added simultaneously to the cell media in 2-fold serial dilutions from a top final concentration of 10 μM as a full matrix of concentrations in a final cell volume of 200 μl, and the cells are then incubated at 37° C. in 5% CO2. After 96 h, 40 μl of MTS reagent (Promega G358a) is added to each well and the cells are incubated for 1 h at 37° C. in 5% CO2.
Compounds with a Cisplatin sensitization value of <0.02 μM are marked with “+++.” Compounds with a Cisplatin sensitization value >0.02 μM but <0.2 μM are marked with “++.” Compounds with a Cisplatin sensitization value >0.2 μM but <5 μM are marked with “+.”

C[N+]1([O-])CCc2c(cncc2NC(=O)c2c(N)nn3cc(F)cnc23)C1 (stereo not drawn) [I-C-9, 5-(2-amino-6-fluoropyrazolo[1,5-a]pyrimidine-3-carboxamido)-2-methyl-1,2,3,4-tetrahydro-2,7-naphthyridine 2-oxide]
Cisplatin Sensitization Assay: + (Compounds with a Cisplatin sensitization value >0.2 μM but <5 μM are marked with “+.”)

Nc1nn2cc(F)cnc2c1C(=O)Nc1cnccc1C1CCN(C2COC2)CC1 [I-C-10, 2-amino-6-fluoro-N-(4-(1-(oxetan-3-yl)piperidin-4-yl)pyridin-3-yl)pyrazolo[1,5-a]pyrimidine-3-carboxamide]
Cisplatin Sensitization Assay: +++ (Compounds with a Cisplatin sensitization value of <0.02 μM are marked with “+++.”)

Nc1nn2cc(Cl)cnc2c1C(=O)Nc1cnccc1C1CCN(C2COC2)CC1 [I-C-11, 2-amino-6-chloro-N-(4-(1-(oxetan-3-yl)piperidin-4-yl)pyridin-3-yl)pyrazolo[1,5-a]pyrimidine-3-carboxamide]
Cisplatin Sensitization Assay: +++ (Compounds with a Cisplatin sensitization value of <0.02 μM are marked with “+++.”)

Nc1nn2cc(F)cnc2c1C(=O)Nc1cncc(F)c1C1=CCN(C2COC2)CC1 [I-C-12, 2-amino-6-fluoro-N-(5-fluoro-1′-(oxetan-3-yl)-1′,2′,3′,6′-tetrahydro-[4,4′-bipyridin]-3-yl)pyrazolo[1,5-a]pyrimidine-3-carboxamide]
Cisplatin Sensitization Assay: +++ (Compounds with a Cisplatin sensitization value of <0.02 μM are marked with “+++.”)

Nc1nn2cc(F)cnc2c1C(=O)Nc1cncc(F)c1C1CCN(C2COC2)CC1 [I-C-13, 2-amino-6-fluoro-N-(5-fluoro-4-(1-(oxetan-3-yl)piperidin-4-yl)pyridin-3-yl)pyrazolo[1,5-a]pyrimidine-3-carboxamide]
Cisplatin Sensitization Assay: ++ (Compounds with a Cisplatin sensitization value >0.02 μM but <0.2 μM are marked with “++.”)

CN1CCC(c2c(F)cncc2NC(=O)c2c(N)nn3cc(F)cnc23)CC1 [I-C-14, 2-amino-6-fluoro-N-(5-fluoro-4-(1-methylpiperidin-4-yl)pyridin-3-yl)pyrazolo[1,5-a]pyrimidine-3-carboxamide]
Cisplatin Sensitization Assay: + (Compounds with a Cisplatin sensitization value >0.2 μM but <5 μM are marked with “+.”)

Nc1nn2cc(F)cnc2c1C(=O)Nc1cnccc1-c1cccnc1 [I-C-15, N-([3,4′-bipyridin]-3′-yl)-2-amino-6-fluoropyrazolo[1,5-a]pyrimidine-3-carboxamide]
Cisplatin Sensitization Assay: ++ (Compounds with a Cisplatin sensitization value >0.02 μM but <0.2 μM are marked with “++.”)

CN1CCC(C(=O)N2CCC(c3ccncc3NC(=O)c3c(N)nn4cc(F)cnc34)CC2)CC1 [I-C-16, 2-amino-6-fluoro-N-(4-(1-(1-methylpiperidine-4-carbonyl)piperidin-4-yl)pyridin-3-yl)pyrazolo[1,5-a]pyrimidine-3-carboxamide]
Cisplatin Sensitization Assay: + (Compounds with a Cisplatin sensitization value >0.2 μM but <5 μM are marked with “+.”)

CN1CCN(C(=O)N2CCC(c3ccncc3NC(=O)c3c(N)nn4cc(F)cnc34)CC2)CC1 [I-C-17, 2-amino-6-fluoro-N-(4-(1-(4-methylpiperazine-1-carbonyl)piperidin-4-yl)pyridin-3-yl)pyrazolo[1,5-a]pyrimidine-3-carboxamide]
Cisplatin Sensitization Assay: ++ (Compounds with a Cisplatin sensitization value >0.02 μM but <0.2 μM are marked with “++.”)

Nc1nn2cc(F)cnc2c1C(=O)Nc1cnccc1C1CCN(C(=O)C23CCN(CC2)CC3)CC1 [I-C-18, 2-amino-6-fluoro-N-(4-(1-(quinuclidine-4-carbonyl)piperidin-4-yl)pyridin-3-yl)pyrazolo[1,5-a]pyrimidine-3-carboxamide]
Cisplatin Sensitization Assay: + (Compounds with a Cisplatin sensitization value >0.2 μM but <5 μM are marked with “+.”)

CN1CCN(C(=O)c2ccc(-c3ccncc3NC(=O)c3c(N)nn4cc(F)cnc34)cn2)CC1 [I-C-19, 2-amino-6-fluoro-N-(6-(4-methylpiperazine-1-carbonyl)-[3,4′-bipyridin]-3′-yl)pyrazolo[1,5-a]pyrimidine-3-carboxamide]
Cisplatin Sensitization Assay: ++ (Compounds with a Cisplatin sensitization value >0.02 μM but <0.2 μM are marked with “++.”)

Cc1ncccc1-c1ccncc1NC(=O)c1c(N)nn2cc(F)cnc12 [I-C-20, 2-amino-6-fluoro-N-(2-methyl-[3,4′-bipyridin]-3′-yl)pyrazolo[1,5-a]pyrimidine-3-carboxamide]
Cisplatin Sensitization Assay: +++ (Compounds with a Cisplatin sensitization value of <0.02 μM are marked with “+++.”)

CN1CCN(c2ccc(-c3ccncc3NC(=O)c3c(N)nn4cc(F)cnc34)cn2)CC1 [I-C-21, 2-amino-6-fluoro-N-(6-(4-methylpiperazin-1-yl)-[3,4′-bipyridin]-3′-yl)pyrazolo[1,5-a]pyrimidine-3-carboxamide]
Cisplatin Sensitization Assay: +++ (Compounds with a Cisplatin sensitization value of <0.02 μM are marked with “+++.”)

Cc1ccc(-c2ccncc2NC(=O)c2c(N)nn3cc(F)cnc23)cn1 [I-C-22, 2-amino-6-fluoro-N-(6-methyl-[3,4′-bipyridin]-3′-yl)pyrazolo[1,5-a]pyrimidine-3-carboxamide]
Cisplatin Sensitization Assay: ++ (Compounds with a Cisplatin sensitization value >0.02 μM but <0.2 μM are marked with “++.”)

CN1CCC(c2ccncc2NC(=O)c2c(N)nn3cc(C(C)(C)C#N)cnc23)CC1 [I-C-23, 2-amino-6-(2-cyanopropan-2-yl)-N-(4-(1-methylpiperidin-4-yl)pyridin-3-yl)pyrazolo[1,5-a]pyrimidine-3-carboxamide]
Cisplatin Sensitization Assay: + (Compounds with a Cisplatin sensitization value >0.2 μM but <5 μM are marked with “+.”)

Nc1nn2cc(F)cnc2c1C(=O)Nc1cnccc1-c1ccncc1 [I-C-24, N-([4,4′-bipyridin]-3-yl)-2-amino-6-fluoropyrazolo[1,5-a]pyrimidine-3-carboxamide]
Cisplatin Sensitization Assay: +++ (Compounds with a Cisplatin sensitization value of <0.02 μM are marked with “+++.”)

CN1CCN(C(=O)c2ccc(-c3ccncc3NC(=O)c3c(N)nn4cc(F)cnc34)cc2)CC1 [I-C-25, 2-amino-6-fluoro-N-(4-(4-(4-methylpiperazine-1-carbonyl)phenyl)pyridin-3-yl)pyrazolo[1,5-a]pyrimidine-3-carboxamide]
Cisplatin Sensitization Assay: +++ (Compounds with a Cisplatin sensitization value of <0.02 μM are marked with “+++.”)

Nc1nn2cc(F)cnc2c1C(=O)Nc1cnccc1-c1ccnnc1 [I-C-26, 2-amino-6-fluoro-N-(4-(pyridazin-4-yl)pyridin-3-yl)pyrazolo[1,5-a]pyrimidine-3-carboxamide]
Cisplatin Sensitization Assay: ++ (Compounds with a Cisplatin sensitization value >0.02 μM but <0.2 μM are marked with “++.”)

COc1ccc(-c2ccncc2NC(=O)c2c(N)nn3cc(F)cnc23)cn1 [I-C-27, 2-amino-6-fluoro-N-(6-methoxy-[3,4′-bipyridin]-3′-yl)pyrazolo[1,5-a]pyrimidine-3-carboxamide]
Cisplatin Sensitization Assay: ++ (Compounds with a Cisplatin sensitization value >0.02 μM but <0.2 μM are marked with “++.”)

Cc1cnccc1-c1ccncc1NC(=O)c1c(N)nn2cc(F)cnc12 [I-C-29, 2-amino-6-fluoro-N-(3′-methyl-[4,4′-bipyridin]-3-yl)pyrazolo[1,5-a]pyrimidine-3-carboxamide]
Cisplatin Sensitization Assay: +++ (Compounds with a Cisplatin sensitization value of <0.02 μM are marked with “+++.”)

Cc1ccncc1-c1ccncc1NC(=O)c1c(N)nn2cc(F)cnc12 [I-C-30, 2-amino-6-fluoro-N-(4-methyl-[3,4′-bipyridin]-3′-yl)pyrazolo[1,5-a]pyrimidine-3-carboxamide]
Cisplatin Sensitization Assay: +++ (Compounds with a Cisplatin sensitization value of <0.02 μM are marked with “+++.”)

Cc1nnccc1-c1ccncc1NC(=O)c1c(N)nn2cc(F)cnc12 [I-C-31, 2-amino-6-fluoro-N-(4-(3-methylpyridazin-4-yl)pyridin-3-yl)pyrazolo[1,5-a]pyrimidine-3-carboxamide]
Cisplatin Sensitization Assay: +++ (Compounds with a Cisplatin sensitization value of <0.02 μM are marked with “+++.”)

Cc1ccnnc1-c1ccncc1NC(=O)c1c(N)nn2cc(F)cnc12 [I-C-33, 2-amino-6-fluoro-N-(4-(4-methylpyridazin-3-yl)pyridin-3-yl)pyrazolo[1,5-a]pyrimidine-3-carboxamide]
Cisplatin Sensitization Assay: + (Compounds with a Cisplatin sensitization value >0.2 μM but <5 μM are marked with “+.”)

Cc1nc(F)ccc1-c1ccncc1NC(=O)c1c(N)nn2cc(F)cnc12 [I-C-34, 2-amino-6-fluoro-N-(6-fluoro-2-methyl-[3,4′-bipyridin]-3′-yl)pyrazolo[1,5-a]pyrimidine-3-carboxamide]
Cisplatin Sensitization Assay: +++ (Compounds with a Cisplatin sensitization value of <0.02 μM are marked with “+++.”)

Nc1nn2cc(F)cnc2c1C(=O)Nc1cnccc1-c1cccnc1F [I-C-35, 2-amino-6-fluoro-N-(2-fluoro-[3,4′-bipyridin]-3′-yl)pyrazolo[1,5-a]pyrimidine-3-carboxamide]
Cisplatin Sensitization Assay: +++ (Compounds with a Cisplatin sensitization value of <0.02 μM are marked with “+++.”)

Cc1cccnc1-c1ccncc1NC(=O)c1c(N)nn2cc(F)cnc12 [I-C-36, 2-amino-6-fluoro-N-(3-methyl-[2,4′-bipyridin]-3′-yl)pyrazolo[1,5-a]pyrimidine-3-carboxamide]
Cisplatin Sensitization Assay: +++ (Compounds with a Cisplatin sensitization value of <0.02 μM are marked with “+++.”)

Nc1nn2cc(F)cnc2c1C(=O)Nc1cnccc1-c1cccnc1Cl [I-C-37, 2-amino-N-(2-chloro-[3,4′-bipyridin]-3′-yl)-6-fluoropyrazolo[1,5-a]pyrimidine-3-carboxamide]
Cisplatin Sensitization Assay: +++ (Compounds with a Cisplatin sensitization value of <0.02 μM are marked with “+++.”)
